Data taken from ChEMBL document CHEMBL1142100, “Hypericin activates L-type Ca2+ channels in cardiac myocytes” (J Nat Prod, 2007).
Calls of active or inactive are those of the source. No cut-off for these calls is given here.

Key:
Assay type in all cases: cell-based
Conditions in all cases: Cardiac atrium
[1] = system: Pelophylax lessonae; assay: Activity at L-type calcium channel in frog atrial myocytes assessed as increase in Sr2+ current
[2] = system: Pelophylax lessonae; assay: Inhibition of PP2A in frog atrial myocytes by microscystin assay
[3] = system: Pelophylax lessonae; assay: Inhibition of NOS2 in frog atrial myocytes
[4] = system: Pelophylax lessonae; assay: Decrease in cellular cGMP level in frog atrial myocytes at 4 uM by immunoassay; set-up: scale not given: the % may be the effect or the level left

Structure (SMILES): Cc1cc(O)c2c(=O)c3c(O)cc(O)c4c5c(O)cc(O)c6c(=O)c7c(O)cc(C)c8c1c2c(c34)c(c78)c65
- Activity [1]: Dose-dependent effect
- Activity [2]: inactive
- Activity [3]: inactive
- Activity [4]: 69%
